Laboratory results from PubChem BioAssay (NCI).
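Where inhibition never reached the appropriate level, the endpoint shown equals the highest concentration tested. Otherwise, values were interpolated linearly from a five-concentration, 48-hour dose response in 96-well plates. The concentration for 50% growth inhibition is given as GI50. TGI is the concentration that stops growth completely.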

Tests used:
Assay in all cases: NCI tumour cell line growth inhibition, 48 h
[1] = tested on: 786-0 renal
[2] = tested on: A498 renal
[3] = tested on: A549 NSCLC
[4] = tested on: ACHN renal
[5] = tested on: BT-549 breast
[6] = tested on: CCRF-CEM leukemia
[7] = tested on: COLO 205 colon
[8] = tested on: DU-145 prostate
[9] = tested on: HCC-2998 colon
[10] = tested on: HCT-116 colon
[11] = tested on: HCT-15 colon
[12] = tested on: HL-60(TB) leukemia
[13] = tested on: HOP-62 NSCLC
[14] = tested on: HOP-92 NSCLC
[15] = tested on: HS 578T breast
[16] = tested on: HT29 colon
[17] = tested on: IGROV1 ovarian
[18] = tested on: K-562 leukemia
[19] = tested on: KM12 colon
[20] = tested on: LOX IMVI melanoma
[21] = tested on: M14 melanoma
[22] = tested on: MALME-3M melanoma
[23] = tested on: MCF7 breast
[24] = tested on: MDA-MB-231 breast
[25] = tested on: MDA-MB-435
[26] = tested on: MOLT-4 leukemia
[27] = tested on: NCI-H226 lung
[28] = tested on: NCI-H23 lung
[29] = tested on: NCI-H460 lung
[30] = tested on: NCI-H522 lung
[31] = tested on: NCI/ADR-RES ovarian
[32] = tested on: OVCAR-3 ovarian
[33] = tested on: OVCAR-4 ovarian
[34] = tested on: OVCAR-5 ovarian
[35] = tested on: OVCAR-8 ovarian
[36] = tested on: PC-3 prostate
[37] = tested on: RPMI-8226 leukemia
[38] = tested on: RXF 393 renal
[39] = tested on: SF-268 CNS
[40] = tested on: SF-295 CNS
[41] = tested on: SF-539 CNS
[42] = tested on: SK-MEL-2 melanoma
[43] = tested on: SK-MEL-28 melanoma
[44] = tested on: SK-MEL-5 melanoma
[45] = tested on: SK-OV-3 ovarian
[46] = tested on: SN12C renal
[47] = tested on: SNB-19 CNS
[48] = tested on: SNB-75 CNS
[49] = tested on: SR leukemia
[50] = tested on: SW-620 colon
[51] = tested on: T-47D breast
[52] = tested on: TK-10 renal
[53] = tested on: U251 CNS
[54] = tested on: UACC-257 melanoma
[55] = tested on: UACC-62 melanoma
[56] = tested on: UO-31 renal
[57] = tested on: CAKI-1 renal
[58] = tested on: EKVX NSCLC

## O=C(/C=C/c1ccccc1)n1c(-c2ccc(Cl)cc2)nc2ccccc21
[1]
  GI50: 2.05 µM
  TGI: 7.63 µM
[2]
  GI50: 1.17 µM
  TGI: 2.56 µM
[3]
  GI50: 1.89 µM
  TGI: 7.3 µM
[4]
  GI50: 1.18 µM
  TGI: 10 µM
[5]
  GI50: 1.67 µM
  TGI: 3.22 µM
[6]
  GI50: 0.731 µM
  TGI: 3.45 µM
[7]
  GI50: 1.41 µM
  TGI: 2.78 µM
[8]
  GI50: 1.8 µM
  TGI: 4.93 µM
[9]
  GI50: 1.8 µM
  TGI: 3.45 µM
[10]
  GI50: 1.21 µM
  TGI: 2.88 µM
[11]
  GI50: 1.34 µM
  TGI: 7.06 µM
[12]
  GI50: 1.4 µM
  TGI: 4.88 µM
[13]
  GI50: 2.72 µM
  TGI: 5.17 µM
[14]
  GI50: 1.46 µM
  TGI: 3.82 µM
[15]
  GI50: 2.57 µM
  TGI: 17.9 µM
[16]
  GI50: 1.51 µM
  TGI: 3.71 µM
[17]
  GI50: 1.95 µM
  TGI: 4.63 µM
[18]
  GI50: 2.09 µM
  TGI: 11.8 µM
[19]
  GI50: 1.44 µM
  TGI: 2.93 µM
[20]
  GI50: 0.588 µM
  TGI: 1.91 µM
[21]
  GI50: 1.91 µM
  TGI: 5.05 µM
[22]
  GI50: 1.63 µM
  TGI: 5.74 µM
[23]
  GI50: 1.01 µM
  TGI: 9.92 µM
[24]
  GI50: 1.88 µM
  TGI: 5.18 µM
[25]
  GI50: 1.11 µM
  TGI: 3.04 µM
[26]
  GI50: 1.13 µM
  TGI: 6.73 µM
[27]
  GI50: 2.17 µM
  TGI: 6 µM
[28]
  GI50: 1.91 µM
  TGI: 4.89 µM
[29]
  GI50: 1.53 µM
  TGI: 3.5 µM
[30]
  GI50: 1.23 µM
  TGI: 2.64 µM
[31]
  GI50: 1.49 µM
  TGI: 61.3 µM
[32]
  GI50: 1.11 µM
  TGI: 2.64 µM
[33]
  GI50: 3.01 µM
  TGI: 16.7 µM
[34]
  GI50: 1.74 µM
  TGI: 4.21 µM
[35]
  GI50: 0.752 µM
  TGI: 10.3 µM
[36]
  GI50: 1.91 µM
  TGI: 6.73 µM
[37]
  GI50: 0.614 µM
  TGI: 3.82 µM
[38]
  GI50: 1.32 µM
  TGI: 3.12 µM
[39]
  GI50: 2.1 µM
  TGI: 6.14 µM
[40]
  GI50: 2.5 µM
  TGI: 6.46 µM
[41]
  GI50: 1.47 µM
  TGI: 2.92 µM
[42]
  GI50: 2.1 µM
  TGI: 4.35 µM
[43]
  GI50: 1.49 µM
  TGI: 3.22 µM
[44]
  GI50: 1.64 µM
  TGI: 3.12 µM
[45]
  GI50: 2.43 µM
  TGI: 5.71 µM
[46]
  GI50: 1.39 µM
  TGI: 2.76 µM
[47]
  GI50: 3.13 µM
  TGI: 12.8 µM
[48]
  GI50: 1.44 µM
  TGI: 3.77 µM
[49]
  GI50: 0.379 µM
  TGI: 1.88 µM
[50]
  GI50: 1.45 µM
  TGI: 5.03 µM
[51]
  GI50: 1.73 µM
  TGI: 7.68 µM
[52]
  GI50: 2.35 µM
  TGI: 7.93 µM
[53]
  GI50: 1.6 µM
  TGI: 3.22 µM
[54]
  GI50: 1.47 µM
  TGI: 3.42 µM
[55]
  GI50: 1.27 µM
  TGI: 2.88 µM
[56]
  GI50: 1.1 µM
  TGI: 3.55 µM

## COc1ccc2c(c1)CC[C@H](O)/C2=C/c1cc(OC)c(OC)c(OC)c1
[1]
  GI50: 0.156 µM
  TGI: > 100 µM
[2]
  GI50: 0.0467 µM
[3]
  GI50: 0.245 µM
  TGI: > 100 µM
[4]
  GI50: 0.227 µM
  TGI: > 100 µM
[5]
  GI50: 0.147 µM
  TGI: 17.6 µM
[57]
  GI50: 0.118 µM
  TGI: > 100 µM
[6]
  GI50: 0.273 µM
  TGI: > 100 µM
[7]
  GI50: 0.106 µM
  TGI: 0.639 µM
[8]
  GI50: 0.156 µM
  TGI: > 100 µM
[58]
  GI50: 1.21 µM
  TGI: > 100 µM
[9]
  GI50: 0.16 µM
  TGI: > 100 µM
[10]
  GI50: 0.104 µM
  TGI: > 100 µM
[11]
  GI50: 0.0567 µM
  TGI: > 100 µM
[12]
  GI50: 0.192 µM
  TGI: 0.86 µM
[13]
  GI50: 0.0876 µM
  TGI: > 100 µM
[14]
  GI50: 16.3 µM
  TGI: > 100 µM
[15]
  GI50: 0.101 µM
  TGI: > 100 µM
[16]
  GI50: 0.107 µM
  TGI: > 100 µM
[17]
  GI50: 1.38 µM
  TGI: > 100 µM
[18]
  GI50: 0.0492 µM
  TGI: > 100 µM
[19]
  GI50: 0.093 µM
  TGI: > 100 µM
[20]
  GI50: 0.207 µM
  TGI: > 100 µM
[21]
  GI50: 0.101 µM
  TGI: > 100 µM
[22]
  GI50: 0.771 µM
  TGI: > 100 µM
[23]
  GI50: 0.0379 µM
  TGI: > 100 µM
[24]
  GI50: 0.604 µM
  TGI: > 100 µM
[26]
  GI50: 0.351 µM
  TGI: > 100 µM
[27]
  GI50: 2.95 µM
  TGI: > 100 µM
[28]
  GI50: 0.162 µM
  TGI: > 100 µM
[29]
  GI50: 0.107 µM
  TGI: > 36.8 µM
[30]
  GI50: 0.0824 µM
  TGI: 6.16 µM
[31]
  GI50: 0.0639 µM
[32]
  GI50: 0.0757 µM
  TGI: > 100 µM
[33]
  GI50: 0.952 µM
  TGI: > 100 µM
[34]
  GI50: 0.906 µM
  TGI: > 100 µM
[35]
  GI50: 0.36 µM
  TGI: > 100 µM
[36]
  GI50: 0.0855 µM
  TGI: > 100 µM
[37]
  GI50: 1.82 µM
  TGI: > 51.3 µM
[39]
  GI50: 0.198 µM
  TGI: > 100 µM
[41]
  GI50: 0.0722 µM
  TGI: 0.43 µM
[42]
  GI50: 17.8 µM
  TGI: > 100 µM
[43]
  GI50: 3.9 µM
  TGI: > 100 µM
[44]
  GI50: 0.0608 µM
  TGI: 2.89 µM
[45]
  GI50: 0.138 µM
  TGI: > 100 µM
[46]
  GI50: 0.998 µM
  TGI: > 100 µM
[47]
  GI50: 0.201 µM
  TGI: > 100 µM
[48]
  GI50: 0.0638 µM
  TGI: > 100 µM
[49]
  GI50: 0.0546 µM
  TGI: > 100 µM
[50]
  GI50: 0.0739 µM
  TGI: > 100 µM
[51]
  GI50: 0.0354 µM
  TGI: 52.8 µM
[52]
  GI50: 34.4 µM
  TGI: > 100 µM
[53]
  GI50: 0.143 µM
  TGI: > 100 µM
[55]
  GI50: 0.0403 µM
  TGI: > 100 µM
[56]
  GI50: 0.222 µM
  TGI: > 100 µM
